Assay results: US20200291100A1, “TREATMENT OF AGE-RELATED AND MITOCHONDRIAL DISEASES BY INHIBITION OF HIF-1 ALPHA FUNCTION” (President and Fellows of Harvard College, priority 2012, published 2020)
“Also recorded” adds a separate entry of the source.

Tests used:
[1] = tested on: 3- and 24-month-old C57BL/6J mice; assay: NMN treatment of 3- and 24-month-old mice, skeletal muscle readouts; type: in vivo, mouse; conditions: NMN 500 mg/kg IP, one week
Experimental: C57BL/6J mice of 3, 6, 22, 24, or 30 months of age were obtained from the National Institutes of Aging mouse aging colony. Mice were acclimated for at least one-week prior to sacrifice. 3, and 24-month-old mice were given interperitoneal (IP) injections of 500 mg NMN/kg body weight per day or the equivalent volume of PBS for 7 consecutive days at 5:00 pm and 7:00 am on day 8 and sacrificed 4 hr after last injection. All animal studies followed the guidelines of and were approved by the Harvard Institutional Animal Care and Use Committee
Skeletal muscle mitochondria were isolated as described previously (Frezza et al., Nat. Protoc. 2:287-295 (2007)). Mitochondrial membrane potential, cytochrome c activity and succinate dehydrogenase were determined as described (Brautigan et al., Methods Enzymol. 53:128-164 (1978); Rolo et al., Biochim. Biophys. Acta. 1637:127-132 ([…]); Singer, T. P., Methods Biochem. Anal. 22:123-175 (1974)). ATP content was measured with a commercial kit according to the manufacturer's instructions (Roche).
NAD^+ from C2C12 cells and skeletal muscle was quantified with a commercially available kit (BioVision) according to the manufacturer's instructions and as described before (Gomes et al., Biochim. Biophys. Acta. 1822:185-195 (2012)).
To test whether a decline in NAD^+ availability, invokes a pseudohypoxic response in muscle that inhibits mitochondrial function, we treated 3- and 24-month-old C57BL/6J mice for one week by intraperitoneal injection of nicotinamide mononucleotide (NMN) (500 mg/kg body weight), a compound that increases NAD^+ levels in a variety of tissues. After the treatment, levels of cellular NAD^+ in both the young and old mice were approximately 2-fold higher, such that the treated 24-month-old mice resembled the untreated 3-month-olds (FIG. 10A).

[2] = tested on: 6- and 22-month-old C57BL/6J mice; assay: NMN treatment of 6- and 22-month-old mice, skeletal muscle readouts; type: in vivo, mouse; conditions: NMN for one week
Source text: C57BL/6J mice of 6, 22, or 30 months of age were obtained from the National Institutes of Aging mouse aging colony. Additionally 22 months old caloric restricted mice were also obtained from the National Institutes of Aging mouse aging colony. EGLN1 KO, SIRT1 KO and SIRT1 OE mice were generated as previously described (Minamishima et al., 2008; Price et al., 2012). Mice were acclimated for at least one-week prior to sacrifice. 3, 6, 22 and 24-month-old mice were given interperitoneal (IP) injections of 500 mg NMN/kg body weight per day or the equivalent volume of PBS for 7 consecutive days at 5:00 pm and 7:00 am on day 8 and sacrificed 4 hr after last injection.
Cytochrome c oxidase activity was polarographically determined based on the 02 consumption upon cytochrome c oxidation, as previously described (Brautigan et al., 1978). The reaction was carried out at 25° C. in 1.3 mL of standard respiratory medium (as in mitochondrial respiration) supplemented with 2 μM rotenone, 10 μM oxidized cytochrome c, 0.3 mg TritonX-100. Following addition of the sample, the reaction was initiated by adding 5 mM ascorbate plus 0.25 mM tetramethylphenylene-diamine (TMPD).
ATP content was measured with a commercial kit according to the manufacturer's instructions (Roche).
RNA from skeletal muscle tissue and C2C12 cells were extracted with RNeasy mini kit (Qiagen) according to the instructions and quantified using the NanoDrop 1000 spectrophotometer (Thermo Scientific). cDNA was synthesized with the iSCRIP cDNA synthesis kit (BioRad) using 600 ng of RNA. Quantitative RT-PCR reactions were performed using 1 μM of primers and LightCycler® 480 SYBR Green Master (Roche) on an LightCycler® 480 detection system (Roche). Calculations were performed by a comparative method (2-ΔCT) using 18S as an internal control. For mtDNA analysis, total DNA was extracted with DNeasy blood and tissue kit (Qiagen). mtDNA was amplified using primers specific for the mitochondrial cytochrome c oxidase subunit 2 (COX2) gene and normalized to genomic DNA by amplification of the ribosomal protein s18 (rps18) nuclear gene. Primers were designed using the IDT software (IDT) and the primer sequences can be found in Table 1.
Protein extracts from tissue or C2C12 cells were obtained by lysis in ice-cold lysis buffer (150 mM NaCl, 10 mM Tris HCl (pH 7.4), 1 mM EDTA, 1 mM EGTA, 1% Triton X-100, 0.5% NP-40) supplemented with a cocktail of protease and phosphatase inhibitors (Roche). Protein content was determined by the Bradford protein assay (Biorad), and 50 μg proteins were run on SDS-PAGE under reducing conditions. The separated proteins were then electrophoretically transferred to a polyvinylidene difluoride membrane (Perkin-Elmer). […] The immunostaining was detected using horseradish peroxidase-conjugated anti-rabbit or anti-mouse immunoglobulin for 1 h at room temperature.
NAD^+ from skeletal muscle was quantified with a commercially available kit (BioVision) according to the manufacturer's instructions and as described before (Gomes et al., 2012).
It was shown above that decreased levels of NAD^+ associated with age invokes a SIRT1 dependent pseudohypoxic response that disrupts mitochondrial homeostasis. Therefore, artificially boosting NAD^+ levels in old mice should restore mitochondrial homeostasis by reducing HIF-1α levels and restoring the expression of mitochondrial-encoded ETC components. Administration of NMN, a compound recently shown to increase NAD^+ levels in a variety of tissues (Yoshino et al., 2011), to 6- and 22-month-old C57BL/6J mice for one week increased levels of cellular NAD^+ in both the young and old mice were by 2-fold. The boost in the treated 22-month-old mice resembled the untreated 6-month-olds (FIG. 17A).

[3] = skeletal muscle, treated old (24-month) mice

## NC(=O)c1ccc[n+]([C@@H]2O[C@H](COP(=O)([O-])O)[C@@H](O)[C@H]2O)c1 [NMN, nicotinamide mononucleotide]
[1]; gastrocnemius, qPCR, 24-month-old mice
  expression of HIF-1α target genes (PGK-1, Glut1, PKD1, VEGFa): suppressed the expression
[1]; gastrocnemius, 24-month-old mice
  HIF-1α in muscle (immunoblot): reversed the age-induced increase
[1]; gastrocnemius, young and old mice, versus untreated
  levels of cellular NAD+: approximately 2 fold
[1]; isolated skeletal muscle mitochondria, treated old (24-month) mice
  mitochondrial membrane potential: restoration of mitochondrial membrane potential to the levels of the young mice
[1]; [3]
  ATP levels: increases
  COX activity: increases
[2]; gastrocnemius, qPCR, old mice
  expression of mitochondrial-encoded genes: restored
[2]; gastrocnemius, old mice
  ATP levels: increase
  COX activity: increase
  HIF-1α protein (immunoblot): reversed; also recorded: reduced the level of HIF-1α
  VHL protein (immunoblot): reversed the age-induced decline
[2]; old mice
  lactate levels in the skeletal muscle: suppressed the increase
[2]; skeletal muscle of old mice, immunoblot
  muscle wasting markers Atrogin-1 and MuRF1: completely reversed
[2]; skeletal muscle of old mice, qPCR
  expression of inflammation markers: completely reversed
[2]; soleus of old mice, immunoblot
  phosphorylation of AKT and IRS-1: increasing the phosphorylation
[2]; soleus of old mice
  age-induced insulin resistance in the skeletal muscle: reverse age-induced insulin resistance
[2]; young and old mice
  levels of cellular NAD+: 2 fold
